Experimental data as given in patent publication US20220256900A1, “COMPOSITIONS WITH SUGAR LIKE CHARACTERISTICS” (CORN PRODUCTS DEVELOPMENT, INC., priority 2019, published 2022).

Key:
Assay type in all cases: in vivo
[1] = test system: trained descriptive analysis (DA) panel; test: Sensory evaluation of Test Compound/Reb M blends (sweetness quality and off-taste profile), 15 cm scale; conditions: RO water, samples target 10 Brix sucrose, 1000 ppm Test Comp, 600 ppm Reb M; for Bitter Aftertaste (1 min) / Sweet Aftertaste (1 min): 1 minute after expectoration; for Bitter Aftertaste (3 min) / Sweet Aftertaste (3 min): 3 minutes after expectoration; for Astringent / Bitter / Licorice / Metallic / Sweet AT (Appearance Time) / Sweet Intensity (ns) / Thickness: room temperature, LSD means
Method: Sensory results for sweetener blends with Reb M were evaluated using a trained descriptive analysis (DA) panel. Five blend samples were tested in this panel; wherein each sample was designed to target a sweetness equivalence of 10 Brix Sucrose.
Study Designs and Test Samples. A validated and trained panel of 10-12 descriptive analysis panelists participated in these experiments.
During the test sessions, panelists rated the intensity of each attribute on a 15 cm scale. Five test samples were tested for each attribute, in triplicate. The order of samples was randomized and blinded using the Williams Latin Square design. All samples were prepared in reverse osmosis (RO) water and served at room temperature and evaluated using a sip and spit protocol.
Each of the five samples were evaluated for sensory attributes corresponding to sweetness quality and off-taste profile. Attributes of sweetness intensity, sweetness appearance time, sweetness aftertaste and thickness were evaluated as part of the sweetness quality profiling. Specifically, for sweetness aftertaste two time points were evaluated; 1 minute and 3 minutes, after expectoration. The sweetness aftertaste corresponds to the sweetness linger characteristic, often common to high potency sweeteners.
Off-Taste Profile. All 5 blend samples were also evaluated for attributes of bitter, astringent, metallic, licorice, and bitter aftertaste, as part of the off-taste profiling. Specifically, for bitter aftertaste two time points were evaluated; 1 minute and 3 minutes, after expectoration. When referring to ‘bitter’ tastes herein it refers to a sample that confers a bitter taste, activates or that can be detected by a bitter taste receptor and/or confers the perception of a bitter taste in a subject. Table 5 lists the LSD Means Differences for the off-taste evaluation across the 5 blend samples with Reb M.

3 tasters [2] = test: Taste profile of Test Compound Na Salt with HFCS-55 in pH 3.0 buffer (Example 4); conditions: Test Compound (Na Salt) 1100 ppm
Method: (§1) The taste profile of the Test Compound Sweetener (Na Salt of the compound) was evaluated in combination with sweeteners—namely High Fructose Corn Syrup (HFCS-55). These samples were evaluated in pH 3.0 buffer by 3 tasters. Samples were tasted in a blinded fashion using sip and spit methodology. The focus of the evaluation was to obtain an indication of the sweetness profile of the blends when compared to sucrose. Materials and Methods. Potassium sorbate was dissolved into water. The remaining ingredients were added and mixed until fully dissolved. The pH of each sample was recorded and the samples tasted using sip and spit method. The samples were then compared to each other.

3 tasters [3] = test: Taste profile of Test Compound Na Salt with Reb A in pH 3.0 buffer (Example 5)
Method: as §1, with “Rebaudioside A (Reb A). Enliten® 300000 (Reb A 95) was used in combination with the Test Compound.” for “High Fructose Corn Syrup (HFCS-55).”

[4] = test system: trained descriptive analysis (DA) panel; test: Sensory evaluation of Test Compound/Reb M blends (sweetness quality and off-taste profile), 15 cm scale; conditions: in water solution
3 tasters [5] = test: Taste profile of Test Compound Na Salt with sucralose in pH 3.0 buffer (Example 7)
Method: The taste profile of the Test Compound Sweetener (Na Salt of the compound) was evaluated in combination with sweeteners—namely sucralose. These samples were evaluated in pH 3.0 buffer at 10 SE by 3 tasters. Samples were tasted in a blinded fashion using sip and spit methodology. The focus of the evaluation was to obtain an indication of the sweetness profile of the blends when compared to sucrose.
Materials and Methods. Potassium sorbate was dissolved into water. The remaining ingredients were added and mixed until fully dissolved. The samples were tasted using sip and spit method. The samples were then compared to each other and the HFCS-55 sweetness equivalence target (10 SE).

[6] = test system: trained descriptive analysis (DA) panel; test: Concentration-response testing of the Test Compound vs sucrose, sweetness intensity on gLMS; conditions: in water at room temperature; tested range 0% to 0.2% (2000 ppm)
Method: A concentration-response (CR) testing of the Test Compound was conducted using a trained descriptive analysis (DA) panel to compare the Test Compound in an aqueous matrix to sucrose. The concentration-response curve for the natural sweetener (Test Compound) was determined using a general Labeled Magnitude Scale (gLMS). Trained panelists were asked to rate the sweetness intensity of eight (8) concentrations of sweetener and sucrose, in water at room temperature (RT). […] This relationship was established using a dose response model (Equation 2: R=Rmin+(C^Hillslope)*(Rmax−Rmin)/(C^HillSlope+EC50^HillSlope) for Sucrose and the Test Compound Sweetener. Study design and Test Samples: A trained panel of 10-12 descriptive analysis panelists participated in the experiment. All participants underwent training, during which panelists familiarized themselves with rating the sweetness intensity on the gLMS scale. The scale is depicted in FIG. 4 as a vertical line marked with anchors describing different intensities. The panelists were instructed to rate the perceived sweetness intensity for each sample by marking a line on the scale. The order of samples was randomized and blinded using the William's Latin Square design. The order of sample presentation within each sweetener set was also randomized. All samples were evaluated using a sip and spit protocol.

[7] = 10 SE target, Test Compound Na Salt 1100 ppm, blend 550 ppm + 85 ppm Sucralose, Sucralose 170 ppm

SMILES: Cc1ccc2[nH]cc(C[C@@H](N)C(=O)O)c2c1 [Compound 5, (R)-2-amino-3-(5-methyl-1H-indol-3-yl)propanoic acid]
- Bitter Aftertaste (1 min) [1]: 0.2
- Sweet Aftertaste (1 min) [1]: 3.1
- Bitter Aftertaste (3 min) [1]: 0.1
- Sweet Aftertaste (3 min) [1]: 0.2
- Astringent [1]: 1.7
- Bitter [1]: 1.5
- Licorice [1]: 1.6
- Metallic [1]: 1.1
- Sweet AT (Appearance Time) [1]: 4.2
- Sweet Intensity (ns) [1]: 10.0
- Thickness [1]: 6.7
- mouthfeel (3 tasters [2]; blend 550 ppm + 6.49% HFCS-55): lower in mouthfeel
- sweetness and taste (3 tasters [2]; blend 550 ppm + 6.49% HFCS-55, HFCS-55 12.987%): fairly clean in taste and provides good upfront sweetness
- adaptation (3 tasters [3]; in combination with Reb A): helped reduce the adaptation commonly with Reb A
- off-taste of the sweetener by itself [4]: minimal bitterness, astringency and bitter linger
- adaptation (3 tasters [5]; in combination with sucralose): helped reduce the adaptation commonly with sucralose
- concentration-response curve (sweetness intensity, gLMS) [6]: linear relationship

SMILES: C=C1C[C@@]23CC[C@H]4[C@@](C)(CCC[C@@]4(C)C(=O)O[C@@H]4O[C@H](CO)[C@@H](O)[C@H](O)[C@H]4O)[C@@H]2CC[C@]1(O[C@@H]1O[C@H](CO)[C@@H](O)[C@H](O[C@@H]2O[C@H](CO)[C@@H](O)[C@H](O)[C@H]2O)[C@H]1O[C@@H]1O[C@H](CO)[C@@H](O)[C@H](O)[C@H]1O)C3 [Reb A, Rebaudioside A]
- sweetness and taste (3 tasters [3]; 8SE target, Test Compound Na Salt 880 ppm, blend 440 ppm + 275 ppm Reb A, Reb A 550 ppm): much less sweet than 8SE
- onset, decay and off notes (3 tasters [3]; Test Compound Na Salt 880 ppm, blend 440 ppm + 275 ppm Reb A, Reb A 550 ppm): plastic/floral/metallic taste to it with a bitter and astringent linger

SMILES: C=C1C[C@@]23CC[C@H]4[C@@](C)(CCC[C@@]4(C)C(=O)O[C@@H]4O[C@H](CO)[C@@H](O)[C@H](O[C@@H]5O[C@H](CO)[C@@H](O)[C@H](O)[C@H]5O)[C@H]4O[C@@H]4O[C@H](CO)[C@@H](O)[C@H](O)[C@H]4O)[C@@H]2CC[C@]1(O[C@@H]1O[C@H](CO)[C@@H](O)[C@H](O[C@@H]2O[C@H](CO)[C@@H](O)[C@H](O)[C@H]2O)[C@H]1O[C@@H]1O[C@H](CO)[C@@H](O)[C@H](O)[C@H]1O)C3 [Reb M, Rebaudioside M, reference compound]
- Bitter Aftertaste (1 min) [1]: 1.6
- Sweet Aftertaste (1 min) [1]: 5.1
- Bitter Aftertaste (3 min) [1]: 0.9
- Sweet Aftertaste (3 min) [1]: 1.8
- Astringent [1]: 3.1
- Bitter [1]: 4.0
- Licorice [1]: 3.4
- Metallic [1]: 1.7
- Sweet AT (Appearance Time) [1]: 6.8
- Sweet Intensity (ns) [1]: 10.0
- Thickness [1]: 3.5

SMILES: OC[C@H]1O[C@H](O[C@]2(CCl)O[C@H](CCl)[C@@H](O)[C@@H]2O)[C@H](O)[C@@H](O)[C@H]1Cl [Sucralose, sucralose]
- mouthfeel and aftertaste/linger (3 tasters [5]; [7]): Significant aftertaste/linger
- sweetness vs HFCS-55 target (3 tasters [5]; [7]): less sweet than HFCS (LOSE) with a delayed sweetness
